Measured values taken from PubChem BioAssay AID1745844 (Carcinogenic Potency Database (CPDB), 2022).
The source made the active and inactive calls. The rule behind the calls is not given here.

System: rodent lifetime carcinogenesis bioassay, tumor incidence TD50
Assay: chronic cancer bioassays in animals – CPDB, compiled studies (AID 1745844)
[1] = mouse, strain B6AKF1, females, oral dosing, site: any site (literature study), lesion: several types, types named in the paper, dosed 76 weeks, study length 76 weeks
[2] = mouse, strain B6AKF1, females, oral dosing, site: liver, lesion: hepatoma, dosed 76 weeks, study length 76 weeks
[3] = mouse, strain B6AKF1, females, oral dosing, site: lung, lesion: adenoma, dosed 76 weeks, study length 76 weeks
[4] = mouse, strain B6AKF1, males, oral dosing, site: any site (literature study), lesion: several types, types named in the paper, dosed 76 weeks, study length 76 weeks
[5] = mouse, strain B6AKF1, males, oral dosing, site: liver, lesion: hepatoma, dosed 76 weeks, study length 76 weeks
[6] = mouse, strain B6AKF1, males, oral dosing, site: lung, lesion: adenoma, dosed 76 weeks, study length 76 weeks
[7] = mouse, strain B6C3F1, females, oral dosing, site: any site (literature study), lesion: several types, types named in the paper, dosed 76 weeks, study length 76 weeks
[8] = mouse, strain B6C3F1, females, oral dosing, site: liver, lesion: hepatoma, dosed 76 weeks, study length 76 weeks
[9] = mouse, strain B6C3F1, males, oral dosing, site: any site (literature study), lesion: several types, types named in the paper, dosed 76 weeks, study length 76 weeks
[10] = mouse, strain B6C3F1, males, oral dosing, site: liver, lesion: hepatoma, dosed 76 weeks, study length 76 weeks
[11] = mouse, strain B6C3F1, males, oral dosing, site: lung, lesion: adenoma, dosed 76 weeks, study length 76 weeks
[12] = mouse, strain B6C3F1, females, oral dosing, site: lung, lesion: several types, types named in the paper, dosed 76 weeks, study length 76 weeks

`S=C(SSSSSSC(=S)N1CCCCC1)N1CCCCC1` was tested, and the TD50 [1] was 120 mg/kg/day (inactive), the carcinogen call [2] was “negative (inactive)” and the carcinogen call [3] was “negative (inactive)”. The carcinogen call [4] was “negative (inactive)”, the carcinogen call [5] was “negative (inactive)” and the carcinogen call [6] was “negative (inactive)”. For the same compound, the TD50 [7] was 83.1 mg/kg/day (inactive), the carcinogen call [8] was “negative (inactive)” and the TD50 (mouse, strain B6C3F1, females, oral dosing, site: lung, lesion: adenoma, dosed 76 weeks, study length 76 weeks) was 83.1 mg/kg/day (inactive). For the same compound, the TD50 [9] was 52.5 mg/kg/day (inactive), the TD50 [10] was 113 mg/kg/day (inactive) and the TD50 [11] was 113 mg/kg/day (inactive).
`Nc1cc(Cl)c(-c2cc(Cl)c(N)cc2Cl)cc1Cl` showed a TD50 (mouse, strain dd, females, in feed, site: all sites, lesion: malignant lymphoma, dosed 104 weeks, study length 104 weeks) of 109 mg/kg/day, a TD50 (mouse, strain dd, females, in feed, site: any site (literature study), lesion: malignant tumor, dosed 104 weeks, study length 104 weeks) of 87.2 mg/kg/day and a TD50 (rat, strain Wistar, females, in feed, site: liver, lesion: hepatoma, dosed 104 weeks, study length 104 weeks) of 735 mg/kg/day. The TD50 (rat, strain Wistar, females, in feed, site: urinary bladder, lesion: transitional-cell carcinoma, dosed 104 weeks, study length 104 weeks) was 2310 mg/kg/day and the TD50 (rat, strain Wistar, males, in feed, site: urinary bladder, lesion: transitional-cell carcinoma, dosed 104 weeks, study length 104 weeks) was 561 mg/kg/day.
Compound `O=C1NC(c2ccc([N+](=O)[O-])s2)Nc2ccccc21` (stereo unspecified) has a TD50 (rat, strain Sprague-Dawley, females, in feed, site: any site (literature study), lesion: several types, types named in the paper, dosed 46 weeks, study length 66 weeks) of 1.53 mg/kg/day and a TD50 (rat, strain Sprague-Dawley, females, in feed, site: mammary gland, lesion: adenocarcinoma, dosed 46 weeks, study length 66 weeks) of 13.3 mg/kg/day.
With `S=c1nc[nH]c2nc[nH]c12` the TD50 (rat, strain BR 46, males, i.v., site: any site (literature study), lesion: several types, types named in the paper, dosed 52 weeks, study length 104 weeks) was 58.1 mg/kg/day (inactive), the TD50 (rat, strain F344/DuCrj, females, in feed, site: adrenal gland, lesion: pheochromocytoma, dosed 104 weeks, study length 113 weeks) was 22.5 mg/kg/day and the TD50 (rat, strain F344/DuCrj, females, in feed, site: any site (literature study), lesion: malignant tumor, dosed 104 weeks, study length 113 weeks) was 10.3 mg/kg/day. For the same compound, the TD50 (rat, strain F344/DuCrj, females, in feed, site: any site (literature study), lesion: several types, types named in the paper, dosed 104 weeks, study length 113 weeks) was 4.74 mg/kg/day, the TD50 (rat, strain F344/DuCrj, females, in feed, site: central nervous system, lesion: several types, types named in the paper, dosed 104 weeks, study length 113 weeks) was 34.1 mg/kg/day and the TD50 (rat, strain F344/DuCrj, females, in feed, site: liver, lesion: hepatocellular carcinoma, dosed 104 weeks, study length 113 weeks) was 139 mg/kg/day. For the same compound, the TD50 (rat, strain F344/DuCrj, females, in feed, site: uterus, lesion: adenocarcinoma, dosed 104 weeks, study length 113 weeks) was 34.1 mg/kg/day.
With `ClCOCCCCOCCl` the carcinogen call (mouse, strain Ha/ICR, females, i.p., site: abdomen, lesion: sarcoma, dosed 81 weeks, study length 81 weeks) was “negative (inactive)”.
With `CC(C)CN(N=O)C(=N)N[N+](=O)[O-]` the carcinogen call (rat, strain Wistar, males, in drinking water, site: stomach, glandular, lesion: one or several types, types not named, dosed 52 weeks, study length 78 weeks) was “negative (inactive)”.
`O=C(NCC1CCCCN1)c1cc(OCC(F)(F)F)ccc1OCC(F)(F)F` (stereo unspecified) was tested, and the carcinogen call (mouse, strain Charles River CD1, females, in feed, site: liver, lesion: adenoma, dosed 78 weeks, study length 78 weeks) was “negative (inactive)”, the TD50 (mouse, strain Charles River CD1, females, in feed, site: lung, lesion: adenoma, dosed 78 weeks, study length 78 weeks) was 938 mg/kg/day (inactive) and the carcinogen call (mouse, strain Charles River CD1, males, in feed, site: liver, lesion: adenoma, dosed 78 weeks, study length 78 weeks) was “negative (inactive)”. The carcinogen call (mouse, strain Charles River CD1, males, in feed, site: liver, lesion: hepatocellular carcinoma, dosed 78 weeks, study length 78 weeks) was “negative (inactive)”, the carcinogen call (mouse, strain Charles River CD1, males, in feed, site: lung, lesion: adenoma, dosed 78 weeks, study length 78 weeks) was “negative (inactive)” and the carcinogen call (rat, strain Charles River Crl:COBS(WI)BR, females, in feed, site: liver, lesion: adenoma, dosed 104 weeks, study length 104 weeks) was “negative (inactive)”. The TD50 (rat, strain Charles River Crl:COBS(WI)BR, males, in feed, site: liver, lesion: adenoma, dosed 104 weeks, study length 104 weeks) was 3580 mg/kg/day (inactive) and the TD50 (rat, strain Charles River Crl:COBS(WI)BR, males, in feed, site: testis, lesion: interstitial-cell adenoma, dosed 104 weeks, study length 104 weeks) was 79.1 mg/kg/day (inactive).
With `C=C1C[C@]23C[C@@]1(O)CC[C@H]2[C@@]12C=C[C@H](O)[C@@](C)(C(=O)O1)[C@H]2[C@@H]3C(=O)O` the carcinogen call [1] was “negative (inactive)”, the carcinogen call [2] was “negative (inactive)” and the carcinogen call [3] was “negative (inactive)”. For the same compound, the TD50 [4] was 151 mg/kg/day (inactive), the TD50 [5] was 316 mg/kg/day (inactive) and the TD50 (mouse, strain B6AKF1, males, oral dosing, site: lung, lesion: several types, types named in the paper, dosed 76 weeks, study length 76 weeks) was 460 mg/kg/day (inactive). For the same compound, the TD50 [7] was 1150 mg/kg/day (inactive), the carcinogen call [8] was “negative (inactive)” and the carcinogen call [12] was “negative (inactive)”. The TD50 [9] was 214 mg/kg/day (inactive), the TD50 [10] was 460 mg/kg/day (inactive) and the TD50 [11] was 952 mg/kg/day (inactive).
In the case of `O=C(OOC(=O)c1ccccc1)c1ccccc1`, the carcinogen call (mouse, strain albino, both sexes, in feed, site: liver, lesion: hepatoma, dosed 80 weeks, study length 80 weeks) is reported as “negative (inactive)”, the carcinogen call (mouse, strain albino, both sexes, in feed, site: lung, lesion: adenoma, dosed 80 weeks, study length 80 weeks) is reported as “negative (inactive)” and the TD50 (rat, strain albino, both sexes, in feed, site: any site (literature study), lesion: benign tumor, dosed 120 weeks, study length 120 weeks) is reported as 6480 mg/kg/day (inactive). For the same compound, the TD50 (rat, strain albino, both sexes, in feed, site: any site (literature study), lesion: malignant tumor, dosed 120 weeks, study length 120 weeks) was 15600 mg/kg/day (inactive) and the carcinogen call (rat, strain albino, both sexes, in feed, site: liver, lesion: malignant hepatoma, dosed 120 weeks, study length 120 weeks) was “negative (inactive)”.
With `CC(=O)OCC(=O)[C@@]12N=C(C)O[C@@H]1C[C@H]1[C@@H]3CCC4=CC(=O)C=C[C@]4(C)[C@H]3[C@@H](O)C[C@@]12C` the TD50 (rat, strain Charles River CD (Sprague-Dawley), females, in feed, site: head, lesion: osteosarcoma, dosed 104 weeks, study length 104 weeks) was 66.8 mg/kg/day, the carcinogen call (rat, strain Charles River CD (Sprague-Dawley), males, in feed, site: bone, lesion: several types, types named in the paper, dosed 104 weeks, study length 104 weeks) was “positive” and the carcinogen call (rat, strain Charles River CD (Sprague-Dawley), males, in feed, site: head, lesion: osteosarcoma, dosed 104 weeks, study length 104 weeks) was “positive”.
With `Nc1nc(N)nc(-c2cc(Cl)ccc2Cl)n1` the carcinogen call (rat, strain Wistar, males, in feed, site: liver, lesion: one or several types, types not named, dosed 55 weeks, study length 55 weeks) was “negative (inactive)”.
With `C[C@@H]1C[C@]2(O[C@@H]2C)C(=O)O[C@@H]2CCN(C)C/C=C(/COC(=O)[C@]1(C)O)C2=O` the TD50 (rat, strain ACI, females, in drinking water, site: liver, lesion: hemangioendothelial sarcoma, dosed 68 weeks, study length 68 weeks) was 1.52 mg/kg/day, the TD50 (rat, strain ACI, females, in drinking water, site: liver, lesion: liver-cell adenoma, dosed 68 weeks, study length 68 weeks) was 4.13 mg/kg/day and the TD50 (rat, strain ACI, females, in drinking water, site: liver, lesion: several types, types named in the paper, dosed 68 weeks, study length 68 weeks) was 1.52 mg/kg/day. The TD50 (rat, strain ACI, males, in drinking water, site: liver, lesion: hemangioendothelial sarcoma, dosed 58 weeks, study length 58 weeks) was 4.78 mg/kg/day, the TD50 (rat, strain ACI, males, in drinking water, site: liver, lesion: liver-cell adenoma, dosed 58 weeks, study length 58 weeks) was 1.16 mg/kg/day and the TD50 (rat, strain ACI, males, in drinking water, site: liver, lesion: several types, types named in the paper, dosed 58 weeks, study length 58 weeks) was 0.662 mg/kg/day.
With `CCN(CC)C(=S)[S-].CCN(CC)C(=S)[S-].[Zn+2]` the carcinogen call [1] was “negative (inactive)”, the carcinogen call [2] was “negative (inactive)” and the carcinogen call [3] was “negative (inactive)”. The TD50 [4] was 86.7 mg/kg/day (inactive), the TD50 [5] was 205 mg/kg/day (inactive) and the carcinogen call [6] was “negative (inactive)”. The carcinogen call (mouse, strain B6C3F1, females, oral dosing, site: any site (literature study), lesion: one or several types, types not named, dosed 76 weeks, study length 76 weeks) was “negative (inactive)”, the carcinogen call [8] was “negative (inactive)” and the carcinogen call [12] was “negative (inactive)”. The TD50 [9] was 28.5 mg/kg/day (inactive), the carcinogen call [10] was “negative (inactive)” and the TD50 [11] was 46.2 mg/kg/day (inactive).
`O=S(O)O` was tested, and the TD50 (mouse, strain ICR/Jcl, females, in drinking water, site: liver, lesion: hemangioendothelial sarcoma, dosed 104 weeks, study length 104 weeks) was 204000 mg/kg/day (inactive), the TD50 (mouse, strain ICR/Jcl, females, in drinking water, site: lung, lesion: adenocarcinoma, dosed 104 weeks, study length 104 weeks) was 100000 mg/kg/day (inactive) and the TD50 (mouse, strain ICR/Jcl, females, in drinking water, site: lung, lesion: adenoma, dosed 104 weeks, study length 104 weeks) was 33600 mg/kg/day (inactive). For the same compound, the carcinogen call (mouse, strain ICR/Jcl, males, in drinking water, site: liver, lesion: one or several types, types not named, dosed 104 weeks, study length 104 weeks) was “negative (inactive)”, the TD50 (mouse, strain ICR/Jcl, males, in drinking water, site: lung, lesion: adenocarcinoma, dosed 104 weeks, study length 104 weeks) was 84800 mg/kg/day (inactive) and the TD50 (mouse, strain ICR/Jcl, males, in drinking water, site: lung, lesion: adenoma, dosed 104 weeks, study length 104 weeks) was 84800 mg/kg/day (inactive).
